Test [1] deals with T1, GPR139 (Homo sapiens, UniProt Q6DWJ6).
T1 sequence (Q6DWJ6 1-353): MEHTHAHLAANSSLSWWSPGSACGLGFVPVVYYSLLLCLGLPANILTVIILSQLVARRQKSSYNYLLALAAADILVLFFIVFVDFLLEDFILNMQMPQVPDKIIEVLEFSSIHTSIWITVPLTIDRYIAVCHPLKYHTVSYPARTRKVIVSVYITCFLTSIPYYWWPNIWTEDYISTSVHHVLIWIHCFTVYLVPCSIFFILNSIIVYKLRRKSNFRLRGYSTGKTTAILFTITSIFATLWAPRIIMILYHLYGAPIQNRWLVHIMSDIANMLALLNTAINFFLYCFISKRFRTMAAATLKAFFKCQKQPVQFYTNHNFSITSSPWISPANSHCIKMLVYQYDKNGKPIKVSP
The experiment in a line: Ca2+ mobilization assay, antagonist mode (EC80 800 nM Lundbeck Cmp 1a after 20 min preincubation), GPR139-CHOk1. Format: cell-based. Summed up:
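Fluo-4-loaded GPR139-CHOk1 cells in HEPES-buffered HBSS (pH 7.4, 2.5 mM probenecid) given test compounds at 10 µM, then after 20 min challenged with 800 nM Lundbeck Cmp 1a (EC80). Calcium fluorescence read at 37 °C, 485/525 nm.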

Test [2] addresses T1, GPR139. The experiment in a line: Inositol monophosphate (IP1) accumulation assay, GPR139-CHOk1. Conditions: for EC50: read-out: pEC50 IP1 (converted); for Emax: read-out: Emax (%) IP1. Format: cell-based.
[3] abbreviates: Supplementary Table 2, mean ± SEM.
Where [4] appears, read: log [Compound] M -4.5, replicate experiments.
Where [5] appears, read: log [Compound] M -5.0, replicate experiments.
[6] abbreviates: log [Compound] M -5.5, replicate experiments.
Setting [7] is: log [Compound] M -6.0, replicate experiments.
Where [8] appears, read: log [Compound] M -6.5, replicate experiments.
Where [9] appears, read: log [Compound] M -7.0, replicate experiments.
[10] abbreviates: log [Compound] M -7.5, replicate experiments.
Setting [11] is: log [Compound] M -8.0, replicate experiments.
[12] abbreviates: individual replicates (Supplementary Figure 1).

Experimental findings from article PMC12775434, “Ultra-large virtual screening unveils potent agonists of the neuromodulatory orphan receptor GPR139” (Nature Communications, 2025) are described below.

Molecules are shown by their SMILES. Values joined by “and” are separate entries in the source; they are usually repeats but may differ in a detail not shown here. Identical values can stand only once. Like-named read-outs stand apart in the source and are kept apart here.

As to `COc1cc(OC)cc(C(=O)NNC(=O)Nc2cccc3ccccc23)c1` [Lundbeck Cmp 1a, reference compound], the “Ca2+ signal (% of Cmp 1a)” value at GPR139 [1] (10 µM compound + 800 nM Cmp 1a, individual replicates) was 6.33 % of Cmp 1a and 14 % of Cmp 1a and 11 % of Cmp 1a; at GPR139 [1] (Vehicle + 800 nM Cmp 1a, individual replicates), 92 % of Cmp 1a and 84 % of Cmp 1a and 83 % of Cmp 1a; on GPR139 [1] (Vehicle + 10 µM Cmp 1a, individual replicates), 100 % of Cmp 1a. Moreover, the EC50 on GPR139 [2] (setting [3]) was 501 nM. Further, the “IP1 response (% of Cmp 1a)” value at GPR139 [2] (setting [4]) was 68 % of Cmp 1a and 118 % of Cmp 1a and 94 % of Cmp 1a and 117 % of Cmp 1a and 98 % of Cmp 1a and 86 % of Cmp 1a and 109 % of Cmp 1a; at GPR139 [2] (setting [5]) it was 78 % of Cmp 1a and 115 % of Cmp 1a and 96 % of Cmp 1a and 112 % of Cmp 1a and 133 % of Cmp 1a and 94 % of Cmp 1a and 86 % of Cmp 1a and 118 % of Cmp 1a; on GPR139 [2] (setting [6]) it was 88 % of Cmp 1a and 100 % of Cmp 1a and 81 % of Cmp 1a and 120 % of Cmp 1a and 61 % of Cmp 1a and 70 % of Cmp 1a and 104 % of Cmp 1a; on GPR139 [2] (setting [7]), 58 % of Cmp 1a and 80 % of Cmp 1a and 57 % of Cmp 1a and 63 % of Cmp 1a and 85 % of Cmp 1a and 49 % of Cmp 1a and 68 % of Cmp 1a and 66 % of Cmp 1a; at GPR139 [2] (setting [8]) it was 29 % of Cmp 1a and 32 % of Cmp 1a and 26 % of Cmp 1a and 50 % of Cmp 1a and 44 % of Cmp 1a and 31 % of Cmp 1a and 21 % of Cmp 1a; on GPR139 [2] (setting [9]), 7.48 % of Cmp 1a and 13 % of Cmp 1a and 2.79 % of Cmp 1a and 11 % of Cmp 1a and 21 % of Cmp 1a and 9 % of Cmp 1a and 3.75 % of Cmp 1a and 17 % of Cmp 1a. The “IP1 response (% of Cmp 1a)” value on GPR139 [2] (setting [10]) was 6 % of Cmp 1a and 4.58 % of Cmp 1a and 1.86 % of Cmp 1a and 3 % of Cmp 1a and 16 % of Cmp 1a and 1.22 % of Cmp 1a and 0.482 % of Cmp 1a and 2.32 % of Cmp 1a; on GPR139 [2] (setting [11]) it was 1.17 % of Cmp 1a and 1.86 % of Cmp 1a and 0.194 % of Cmp 1a and 1 % of Cmp 1a and 1.43 % of Cmp 1a and -8 % of Cmp 1a and -2.66 % of Cmp 1a and -4 % of Cmp 1a; at GPR139 [2] (log [compound] M -4.5, individual replicates), 98 % of Cmp 1a and 68 % of Cmp 1a and 86 % of Cmp 1a and 109 % of Cmp 1a; at GPR139 [2] (log [compound] M -5.0, individual replicates), 133 % of Cmp 1a and 94 % of Cmp 1a and 86 % of Cmp 1a and 118 % of Cmp 1a; at GPR139 [2] (log [compound] M -5.5, individual replicates) it was 120 % of Cmp 1a and 61 % of Cmp 1a and 70 % of Cmp 1a and 104 % of Cmp 1a; at GPR139 [2] (log [compound] M -6.0, individual replicates), 85 % of Cmp 1a and 49 % of Cmp 1a and 68 % of Cmp 1a and 66 % of Cmp 1a. Further, the “IP1 response (% of Cmp 1a)” value on GPR139 [2] (log [compound] M -6.5, individual replicates) was 50 % of Cmp 1a and 44 % of Cmp 1a and 31 % of Cmp 1a and 21 % of Cmp 1a; on GPR139 [2] (log [compound] M -7.0, individual replicates), 21 % of Cmp 1a and 9 % of Cmp 1a and 3.75 % of Cmp 1a and 17 % of Cmp 1a; at GPR139 [2] (log [compound] M -7.5, individual replicates), 16 % of Cmp 1a and 1.22 % of Cmp 1a and 0.482 % of Cmp 1a and 2.32 % of Cmp 1a; on GPR139 [2] (log [compound] M -8.0, individual replicates), 1.43 % of Cmp 1a and -8 % of Cmp 1a and -2.66 % of Cmp 1a and -4 % of Cmp 1a. Further, at GPR139 [2], the Emax – broadly, the size of the effect at its maximum, as opposed to the concentration needed – stood at 101 ± 12%.

On to `COC(=O)c1cc(NC(=O)NC(C)c2cccc(F)c2F)ccc1C` (stereo not drawn) [Compound 2, COC(=O)C=1C=C(NC(=O)NC(C)C=2C=CC=C(F)C2F)C=CC1C], for which the “Ca2+ signal (% of Cmp 1a)” value at GPR139 [1] (setting [12]) was 21.0785 % of Cmp 1a and 18.2142 % of Cmp 1a and 25.1866 % of Cmp 1a. For the same compound, the EC50 on GPR139 [2] (setting [3]) is 1580 nM. Moreover, on GPR139 [2] (Supplementary Table 2, normalized to Lundbeck Cmp 1a), the Emax is 85 ± 8%. Besides, the “IP1 response (% of Cmp 1a)” value at GPR139 [2] (setting [4]) was 75 % of Cmp 1a and 55 % of Cmp 1a and 76 % of Cmp 1a and 90 % of Cmp 1a; on GPR139 [2] (setting [5]) it was 64 % of Cmp 1a and 44 % of Cmp 1a and 66 % of Cmp 1a and 76 % of Cmp 1a; at GPR139 [2] (setting [6]) it was 50 % of Cmp 1a and 41 % of Cmp 1a and 46 % of Cmp 1a and 65 % of Cmp 1a; at GPR139 [2] (setting [7]), 34 % of Cmp 1a and 26 % of Cmp 1a and 28 % of Cmp 1a and 41 % of Cmp 1a; on GPR139 [2] (setting [8]), 18 % of Cmp 1a and 16 % of Cmp 1a and 10 % of Cmp 1a and 22 % of Cmp 1a; at GPR139 [2] (setting [9]) it was 8 % of Cmp 1a (2×) and 5 % of Cmp 1a and 3.81 % of Cmp 1a. Also, the “IP1 response (% of Cmp 1a)” value is 6.59 % of Cmp 1a and -1 % of Cmp 1a and 0.549 % of Cmp 1a and 2.33 % of Cmp 1a at GPR139 [2] (setting [10]); 1.89 % of Cmp 1a and -0.926 % of Cmp 1a and 0.158 % of Cmp 1a and 0.886 % of Cmp 1a at GPR139 [2] (setting [11]).

On to `Cc1noc(C(C)NC(=O)Nc2cccc(-c3ccccc3)c2)n1` (stereo not drawn) [Compound 3, CC(NC(=O)NC=1C=CC=C(C1)C=2C=CC=CC2)C3=NC(C)=NO3], for which the “Ca2+ signal (% of Cmp 1a)” value at GPR139 [1] (setting [12]) is 29.8327 % of Cmp 1a and 24.7661 % of Cmp 1a and 29.9717 % of Cmp 1a. For the same compound, the “IP1 response (% of Cmp 1a)” value is 41 % of Cmp 1a and 46 % of Cmp 1a and 42 % of Cmp 1a at GPR139 [2] (setting [4]); 22 % of Cmp 1a and 29 % of Cmp 1a and 28 % of Cmp 1a at GPR139 [2] (setting [5]); 8 % of Cmp 1a and 12 % of Cmp 1a and 10 % of Cmp 1a on GPR139 [2] (setting [6]); 0.417 % of Cmp 1a and 2.14 % of Cmp 1a and 6 % of Cmp 1a on GPR139 [2] (setting [7]); -2.63 % of Cmp 1a and 1.42 % of Cmp 1a and -1.19 % of Cmp 1a at GPR139 [2] (setting [8]); -0.0724 % of Cmp 1a and 2 % of Cmp 1a and 0.325 % of Cmp 1a at GPR139 [2] (setting [9]). Moreover, the “IP1 response (% of Cmp 1a)” value on GPR139 [2] (setting [10]) was -1.11 % of Cmp 1a and -1.52 % of Cmp 1a and 2 % of Cmp 1a; on GPR139 [2] (setting [11]), -0.434 % of Cmp 1a and 0.295 % of Cmp 1a and 1.29 % of Cmp 1a. In addition, the EC50 on GPR139 [2] is 50100 nM.
